Assay: Curcumin concentration in blood of rats after ten days of once-daily oral dosing, determined by HPLC/DAD
Assay type: in vivo
Protocol: This experiment involved the use of 6 groups of rats (n=6):
Group 1: is the control group, where the animals received a solution of 0.5% carboxy methyl cellulose (CMC) in normal saline (formulation vehicle) once daily orally for ten days.
Group 2: Rats were given Eucalyptol (20 mg/kg) solubilized in 0.5% carboxy methyl cellulose (CMC) in normal saline once a day orally for ten days.
Group 3: Rats were administered curcumin (10 mg/kg) solubilized in 0.5% carboxy methyl cellulose (CMC) in normal saline once daily orally for ten days.
Groups 4, 5 and 6: Rats were given combinations of curcumin (10 mg/kg) with Eucalyptol (5 mg/kg, group 4), (10 mg/kg group 5), and (20 mg/kg, group 6), solubilized in 0.5% carboxy methyl cellulose (CMC) in normal saline orally once daily for ten days.
After the last dose on day 10, blood samples were withdrawn from animals after 0.5, 1, 2, 4, 6, 12 and 24 hours, and HPLC/DAD techniques determined the concentrations of curcumin.

time after administration at which curcumin concentration increased in serum (after last dose on day 10, curcumin 10 mg/kg alone): 1 h
time after administration at which curcumin concentration reached the maximum concentration in serum (after last dose on day 10, curcumin 10 mg/kg alone (group 3)): 6 h
Structure (SMILES): COc1cc(/C=C/C(=O)CC(=O)/C=C/c2ccc(O)c(OC)c2)ccc1O [curcumin]

From US11998515B1, “Enhancement of curcumin plasma levels using eucalyptol co-administration” (KING FAISAL UNIVERSITY, priority 2023, dated 2024)
